Results on two compounds are retold here after US11414385B2, “Compounds and methods for treating, detecting, and identifying compounds to treat apicomplexan parasitic diseases” (The University of Chicago, priority 2015, dated 2022).

SMILES strings stand for the structures. “Also recorded” adds a separate entry of the source.

In data set [1] the test system is T. gondii Me49 strain cysts. The data set is described as follows: Established brain cysts in mice (chronic infection). It counts as in vivo, Toxoplasma gondii. Particulars: cysts established >2 months earlier, 12.5-25 mg/kg for 17 days. As to the method:
The ability of compounds to reduce cyst burden and prevent encephalitis induced by the Type II strain of T. gondii were tested. Encephalitis was assessed by histological analyses and parasite burdens evaluated by quantitation of cysts.
The oocyst challenge model is ideal for this study because oocysts can be diluted at one time and stored at 4° C. for 12 months without loss of infectivity titer. For treatment of chronic infection there were 5 to 10 mice per group treated 2 months after infection was established by compound in DMSO for parenteral administration administered once per day. Treatment was for 17 days.

Data set [2] deals with S. cerevisiae wild type parental AD1-9 strain. Kind of data set: Yeast growth inhibition on glycerol medium, wild type. In kind it is cell-based, Saccharomyces cerevisiae. As to conditions: 1 mM, 100, 5 and 1 μM. The procedure:
(§1) Three S. cerevisiae strains were used: M221Q and M221F cytochrome b mutants and wild type. They share the same nuclear genetic background deriving from AD1-9 (kindly given by M. Ghislain, UCL, Belgium). AD1-9 harbors multiple deletions in the ABC transporter genes that render the strain more sensitive to drugs than standard yeast strains^S65.
Protocol: Yeast strains were grown over 48 hours at 33° C. in liquid YPG medium [1% yeast extract, 2% (wt/vol) peptone, and 3% (vol/vol) glycerol). Cultures were diluted to an OD600 of 0.05 and grown for 2 hrs. Cultures were then combined with YPG containing 6% melted agar for a total volume of 15-20 mL and poured onto OmniTray single-well rectangular plates that measured 86 mm by 128 mm (ThermoScientific). Filter paper disks (7 mm diameter, […]) were placed onto the cooled agar plates. […] A single disk with DMSO on each plate was used as a control. Plates were incubated at 33° C. Images were obtained after 4 days using GelDoc XR Imaging System (BioRad) and Quantity One software. Drug effect was assessed by the presence and size of a zone of inhibition around the disks.

Data set [3] deals with T. gondii RH and Prugniaud strain tachyzoites. The data set is described as follows: Tachyzoite infection in mice. Particulars: for efficacy against Prugniaud (Type 2) tachyzoites in mice: 25 mg/kg daily. In kind it is in vivo, Toxoplasma gondii. As to the method:
Ability of compounds to abrogate tachyzoites multiplication was assessed using an in vivo imaging system (IVIS). To facilitate this we have T. gondii strains from each of the 3 major lineages expressing the luciferase gene. In these studies mice are injected intraperitoneally with tachyzoites and parasite proliferation followed up to 30 days post infection. Removal of brains at 30 days allows parasite quantitation by bioluminescence ex vivo using the IVIS. As an alternative method to improve screening efficiency and scalability it is possible for initial screening to use zebrafish with histopathology and visualization as shown in FIG. 6. Quantitation also was performed using QT PCR as described for mice or in translucent Casper zebrafish with parasites with fluors or luciferase to screen rapidly. Tachyzoites and bradyzoites in cysts were used for IP infection and compounds given intraperitoneally.
To test type II parasites, we used T. gondii Me49 and Prugneaud parasites^S39.

Data set [4] has as its system S. cerevisiae M221Q and M221F cytochrome b mutants. Kind of data set: Yeast growth inhibition, cytochrome b Qi mutants. It counts as cell-based, Saccharomyces cerevisiae.
From the text: as §1
Cytochrome b mutant M221F was generated by mitochondrial transformation as described. M221 Q was selected as suppressor from a respiratory deficient mutant. Analysis of revertants from respiratory deficient mutants within the center N of cytochrome b in Saccharomyces cerevisiae.
Protocol: Yeast strains were grown over 48 hours at 33° C. in liquid YPG medium [1% yeast extract, 2% (wt/vol) peptone, and 3% (vol/vol) glycerol). Cultures were diluted to an OD600 of 0.05 and grown for 2 hrs. Cultures were then combined with YPG containing 6% melted agar for a total volume of 15-20 mL and poured onto OmniTray single-well rectangular plates that measured 86 mm by 128 mm (ThermoScientific). Filter paper disks (7 mm diameter, […]) were placed onto the cooled agar plates. […] Images were obtained after 4 days using GelDoc XR Imaging System (BioRad) and Quantity One software. Drug effect was assessed by the presence and size of a zone of inhibition around the disks.

The subject of a further data set is RH-YFP. Kind of data set: Assessment of compound degradation and microbicidal effect on Toxoplasma. In kind it is cell-based, Toxoplasma gondii. As to the method:
HFF were cultured in a 96-well plate and infected with RH-YFP as described above on Day 0, 20 μL of compound was added to 9 wells for each compound and concentration (3 conditions, 3 wells per condition). In condition I, media was removed and replaced with fresh media on Day 3. In condition II, media was removed and replaced with fresh media and more compound on Day 3. In condition III, media was not replaced on Day 3, nor was the compound refreshed. On Day 6, media was removed and replaced with clean media in all wells. On Day 3, 6, and 9 plate was read in the fluorimeter and analyzed graphically in Prism (GraphPad Software).

For `Cc1[nH]c2c(c(=O)c1-c1ccc(Oc3ccccc3)cc1)CCCC2` [MJM170], the figures for the “effect on numbers of Me49 strain cysts in mice” value in data set [1] and in data set [1] (listed as MJM 170) were “modestly reduced numbers” and “reduces cysts”, respectively. The “growth inhibition of wild type yeast” value in data set [2] is listed as “effective”. Also, the “efficacy against Prugniaud (Type 2) tachyzoites in mice” value in data set [3] was “highly efficacious”; in data set [3] (listed as MJM 170), “reduces Type 2 parasites”. The “efficacy against RH tachyzoites in mice” value in data set [3] (25 mg/kg daily intraperitoneally, RH-YFP) is recorded as “highly efficacious; also recorded: eliminates active infection”. For the same compound, the toxicity in mice entry in data set [3] (25 mg/kg for 5 days) is on record as “without toxicity”. Moreover, in data set [4], the “growth inhibition of M221Q / M221F yeast” value was “resistant”.
As for `Cc1[nH]c2c(c(=O)c1-c1ccc(Oc3ccc(OC(F)(F)F)cc3)cc1)CCCC2` [JAG21, 2-methyl-3-(4-(4-(trifluoromethoxy)phenoxy)phenyl)-5,6,7,8-tetrahydroquinolin-4(1H)-one], in the data set with RH-YFP (6-day exposure in culture), the “compound degradation over time” value was “did not appear that the compound was being degraded over time”. Also, the “microbicidal effect” value in the data set with RH-YFP (RH-YFP, media replaced) is on record as “Neither compound was found to be microbicidal”.
